6 molecules from patent US20260138976A1 (Hoffmann-La Roche Inc., priority 2022, published 2026) can be followed below.

The target in this assay is T1, DGK α kinase (Homo sapiens, UniProt P23743).
T1 construct: purchased Reaction Biology Corp. (contract assay service)
T1 sequence (P23743 whole entry): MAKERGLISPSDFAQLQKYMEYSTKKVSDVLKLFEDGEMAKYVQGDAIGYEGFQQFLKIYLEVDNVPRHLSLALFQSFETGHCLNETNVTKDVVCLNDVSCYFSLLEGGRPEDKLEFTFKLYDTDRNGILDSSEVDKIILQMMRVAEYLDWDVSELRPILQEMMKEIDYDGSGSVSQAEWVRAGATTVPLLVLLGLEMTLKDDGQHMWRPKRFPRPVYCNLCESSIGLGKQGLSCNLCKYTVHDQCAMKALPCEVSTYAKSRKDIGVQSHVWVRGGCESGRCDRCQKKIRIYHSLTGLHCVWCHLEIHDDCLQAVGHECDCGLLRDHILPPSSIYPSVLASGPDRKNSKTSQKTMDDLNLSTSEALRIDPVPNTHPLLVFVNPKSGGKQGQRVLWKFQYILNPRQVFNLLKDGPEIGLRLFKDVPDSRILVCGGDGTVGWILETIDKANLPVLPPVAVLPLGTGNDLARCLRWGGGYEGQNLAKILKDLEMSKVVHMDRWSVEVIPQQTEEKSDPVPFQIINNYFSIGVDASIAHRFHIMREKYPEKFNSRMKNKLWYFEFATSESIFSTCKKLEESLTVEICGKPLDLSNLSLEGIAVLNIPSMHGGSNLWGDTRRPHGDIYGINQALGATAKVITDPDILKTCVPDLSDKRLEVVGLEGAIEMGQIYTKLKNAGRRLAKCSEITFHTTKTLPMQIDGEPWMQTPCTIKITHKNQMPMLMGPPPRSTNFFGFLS
As to the kind of experiment: DGKalpha kinase ADP Glo assay run by Reaction Biology Corp. It counts as biochemical. The conditions noted are these: 2 nM kinase, 50 µM ATP, 500 μM DLG, 10-dose duplicate. The procedure: DGK α and ζ kinases use ATP to phosphorylate the substrate 1,2-dilauroyl-sn-glycerol (DLG). ATP is converted to ADP as a result of this enzymatic reaction.
After the kinase reaction, an ATP-depletion reagent is added to terminate the kinase reaction and deplete any remaining ATP, leaving only ADP. Second, a detection reagent is added to simultaneously convert ADP to ATP and allow the newly synthesized ATP to be converted to light using a coupled luciferase/luciferin reaction.
DGK α and ζ kinase ADP Glo assays were ran by Reaction Biology Corp., 1 Great Valley Parkway, Suite 2, Malvern, 19355, PA, USA. Information provided by the service provider are the following: DGK α and ζ kinases were used at 2 nM final concentration. Reactions were carried out at 50 µM ATP. 500 μM of the substrate DLG (Dilauroyl-sn-glycerol) was used.
In general terms: ADP-Glo turns the ADP formed in a reaction into a luminescent signal.
For orientation: IC50 means the midpoint of a concentration-inhibition curve. A lower IC50 goes with greater potency. `CC(C)(C)c1nnc(-c2ccc3c(c2)N(Cc2ccc(-c4nnc(C(F)(F)F)o4)cc2)C(=O)[C@@H](N)CS3(=O)=O)o1` [Example 24, (3R)-3-amino-7-(5-tert-butyl-1,3,4-oxadiazol-2-yl)-1,1-dioxo-5-[[4-[5-(trifluoromethyl)-1,3,4-oxadiazol-2-yl]phenyl]methyl]-2,3-dihydro-1λ^6,5-benzothiazepin-4-one] came in with an IC50 of 282 nM. Molecule `CC(N)(c1nnc(-c2ccc3c(c2)N(Cc2ccc(-c4noc(C(F)(F)F)n4)cc2)C(=O)[C@@H](N)CS3(=O)=O)o1)C(F)(F)F` (stereo partly drawn) [Example 32, (3R)-3-amino-7-[5-(1-amino-2,2,2-trifluoro-1-methyl-ethyl)-1,3,4-oxadiazol-2-yl]-1,1-dioxo-5-[[4-[5-(trifluoromethyl)-1,2,4-oxadiazol-3-yl]phenyl]methyl]-2,3-dihydro-1λ^6,5-benzothiazepin-4-one] showed an IC50 of 173 nM. Molecule `N[C@H]1CS(=O)(=O)c2ccc(-c3nnc(C4(C5CC5)CCCO4)o3)cc2N(Cc2ccc(-c3noc(C(F)(F)F)n3)cc2)C1=O` (stereo partly drawn) [Example 36, (3R)-3-amino-7-[5-(2-cyclopropyl-tetrahydrofuran-2-yl)-1,3,4-oxadiazol-2-yl]-1,1-dioxo-5-[[4-[5-(trifluoromethyl)-1,2,4-oxadiazol-3-yl]phenyl]methyl]-2,3-dihydro-1λ^6,5-benzothiazepin-4-one] yielded an IC50 of 58.5 nM. This IC50 is about 3-fold lower than that of the molecule before. The molecule `N[C@H]1CS(=O)(=O)c2ccc(-c3nnc(C4(N)CCCCC4)o3)cc2N(Cc2ccc(-c3noc(C(F)(F)F)n3)cc2)C1=O` [Example 39, (3R)-3-amino-7-[5-(1-aminocyclohexyl)-1,3,4-oxadiazol-2-yl]-1,1-dioxo-5-[[4-[5-(trifluoromethyl)-1,2,4-oxadiazol-3-yl]phenyl]methyl]-2,3-dihydro-1λ^6,5-benzothiazepin-4-one] yielded an IC50 of 94.6 nM. Turning to `CC(C)(C#N)c1nnc(-c2cc3c(cc2F)S(=O)(=O)C[C@H](N)C(=O)N3Cc2ccc(-c3ccc(C(F)(F)F)cn3)cc2)o1` [Example 88, 2-[5-[(3R)-3-amino-8-fluoro-1,1,4-trioxo-5-[[4-[5-(trifluoromethyl)-2-pyridyl]phenyl]methyl]-2,3-dihydro-1λ^6,5-benzothiazepin-7-yl]-1,3,4-oxadiazol-2-yl]-2-methyl-propanenitrile], the 50% inhibitory concentration (IC50) was 11.1 nM. `CC(O)(c1nnc(-c2ccc3c(c2)N(Cc2ccc(-c4noc(C(F)(F)F)n4)cc2)C(=O)[C@@H](N)CS3(=O)=O)o1)C(F)(F)F` (stereo partly drawn) [Example 96, (3R)-3-amino-1,1-dioxo-7-[5-(2,2,2-trifluoro-1-hydroxy-1-methyl-ethyl)-1,3,4-oxadiazol-2-yl]-5-[[4-[5-(trifluoromethyl)-1,2,4-oxadiazol-3-yl]phenyl]methyl]-2,3-dihydro-1λ^6,5-benzothiazepin-4-one] showed an IC50 of 44.7 nM.
